According to patent US20160184248A1, “COMPOSITIONS AND METHODS OF USE OF -HYDROXY-METHYLBUTYRATE (HMB) RESULTING IN AN ACUTE ENDOCRINE RESPONSE” (University of Central Florida Research Foundation Inc., priority 2014, published 2016):

Assays:
[1] = Plasma HMB by gas chromatography-mass spectrometry after HMB-FA ingestion and resistance exercise; assay type: in vivo, human; details: 1 g HMB-FA 30 min prior to exercise, p<0.01
Excerpt: Twenty resistance trained men (22.3±2.4 y, 1.8±0.1 m, […]) volunteered to participate in this study. Participants were randomly separated into one of two groups: ingestion of HMB free-acid (HMB-FA; n=10) or ingestion of placebo (PL; n=10). Following an explanation of all procedures, risks, and benefits, each participant gave his informed consent prior to participation in this study. The Institutional Review Board for the protection of human subjects of the University of Central Florida approved the research protocol. For inclusion in this study, participants were required to have a minimum of one year of resistance training experience, particularly in the squat exercise. […]
The investigation utilized a placebo-controlled, double-blind, randomized design. […] Total training volume, calculated as repetitions×load, was recorded for further analysis. […]
Plasma HMB was analyzed by Metabolic Technologies Inc. by gas chromatography-mass spectrometry with previously outlined methods to confirm HMB appearance in the plasma (17). Myoglobin concentration was determined via a Myoglobin ELISA kit (Calbiotec, Cat no: MG017C, Spring Valley, Calif., USA) and prepared per manufacturer's instructions. Determination of serum immunoreactivity values was determined using a BioTek Eon spectrophotometer (BioTek, Winooski, Vt., USA). […]

growth hormone = assay: Growth hormone response to resistance exercise after HMB-FA ingestion (commercial kit); assay type: in vivo, human
Excerpt: (§1) Twenty resistance trained men (22.3±2.4 y, 1.8±0.1 m, […]) volunteered to participate in this study. Participants were randomly separated into one of two groups: ingestion of HMB free-acid (HMB-FA; n=10) or ingestion of placebo (PL; n=10). Following an explanation of all procedures, risks, and benefits, each participant gave his informed consent prior to participation in this study. The Institutional Review Board for the protection of human subjects of the University of Central Florida approved the research protocol. For inclusion in this study, participants were required to have a minimum of one year of resistance training experience, particularly in the squat exercise. Participants were not permitted to use any additional nutritional supplements or medications while enrolled in this study. Screening for nutritional and hormonal supplements was accomplished via a health history questionnaire completed during participant recruitment.
The investigation utilized a placebo-controlled, double-blind, randomized design. Participants reported to the laboratory on two occasions. On the first visit (T1), participants were tested for their one-repetition maximum (1-RM) on the barbell back squat, dead lift, and barbell split squat exercises. Participants were instructed to refrain from any form of exercise for a minimum of 72 hours prior to the resistance training bout (T2). On T2, participants completed an intense lower-body resistance exercise session, which consisted of four sets of the barbell back squat, dead lift, and barbell split squat exercises. The barbell back squat exercise was performed with 80% of the participant's 1-RM and the dead lift and barbell split squat exercises were performed with 70% of the participant's 1-RM. Rest intervals were set at 90 s between each set and between exercises. […] Total training volume, calculated as repetitions×load, was recorded for further analysis. […]
(§2) Prior to analysis, all data were assessed to ensure normal distribution, homogeneity of variance, and sphericity. […]

[2] = tested on: insulin-like growth factor (IGF-1); assay: Plasma IGF-1 response to resistance exercise after HMB-FA ingestion (commercial kit); assay type: in vivo, human
Excerpt: as §1
The investigation utilized a placebo-controlled, double-blind, randomized design. Participants reported to the laboratory on two occasions. On the first visit (T1), participants were tested for their one-repetition maximum (1-RM) on the barbell back squat, dead lift, and barbell split squat exercises. Participants were instructed to refrain from any form of exercise for a minimum of 72 hours prior to the resistance training bout (T2). On T2, participants completed an intense lower-body resistance exercise session, which consisted of four sets of the barbell back squat, dead lift, and barbell split squat exercises. The barbell back squat exercise was performed with 80% of the participant's 1-RM and the dead lift and barbell split squat exercises were performed with 70% of the participant's 1-RM. Rest intervals were set at 90 s between each set and between exercises. Participants were encouraged to perform as many repetitions as possible up to 10 repetitions for each set. Total training volume, calculated as repetitions×load, was recorded for further analysis.
The HMB-FA supplement consisted of one gram of β-hydroxy-β-methylbutyrate in the free-acid form (Beta-TOR®, Metabolic Technologies Inc., Ames, Iowa), reverse osmosis water, de-bittering agent, flavor, stevia extract, and potassium carbonate. Each serving of placebo contained one gram of polydextrose and was identical to the HMB-FA supplement in appearance and taste. The HMB-FA and PL treatments were produced and supplied by Metabolic Technologies Inc. (Ames, Iowa). One serving of HMB-FA or PL was consumed 30 minutes prior to the exercise session. All HMB-FA and PL ingestion took place in the Human Performance Lab and was witnessed by one of the investigators. […]
as §2

[3] = in vivo; cited from earlier work
muscle damage = details: initiated 30 min prior to an acute bout of exercise; cited from earlier work
insulin [4] = assay: Serum insulin response to the exercise protocol after HMB ingestion; assay type: in vivo, human; details: acute ingestion and training session
Excerpt: as §1
(§3) The investigation utilized a placebo-controlled, double-blind, randomized design. Participants reported to the laboratory on two occasions. […] Total training volume, calculated as repetitions×load, was recorded for further analysis. […]
as §2

testosterone = assay: Plasma testosterone after HMB-FA ingestion and resistance exercise; assay type: in vivo, human; details: acute ingestion and training session
Excerpt: as §1, §3, §2

[5] = after HMB is fed; cited from earlier work
[6] = healthy young or old adults; cited from earlier work
muscle proteolysis = details: isolated rat muscle, in vitro; cited from earlier work
insulin [7] = details: HMB treated rats, prolonged supplementation; cited from earlier work
[8] = AUC over PRE, IP, 30P, trapezoidal, p=0.02

Row | Structure (SMILES) | Plasma HMB concentrations ([1]; 30 min post-exercise (30P)) | Plasma HMB concentrations ([1]; immediately post-exercise (IP)) | Growth hormone concentration, elevation vs PL (growth hormone; 30P, p=0.100) | Growth hormone AUC vs PL (growth hormone; [8]) | Growth hormone concentration, elevation vs PL (growth hormone; IP, 1 g HMB-FA 30 min prior to exercise, p=0.021) | IGF-1 concentration vs PL ([2]; 30P) | IGF-1 AUC vs PL [2, 8] | IGF-1 concentration vs PL ([2]; IP) | IGF-1 concentration vs PL ([2]; PRE (baseline), supplement given 15 min before the PRE blood draw, p=0.012) | Absorption compared with CaHMB [3] | Tissue clearance compared with CaHMB [3] | Attenuating muscle damage and ameliorating inflammatory response compared with CaHMB (muscle damage) | Effect on the insulin response to the exercise protocol (insulin [4]) | Circulating testosterone levels (testosterone) | Loss of HMB to urine [5] | Side effects [6] | Inhibition of muscle proteolysis (muscle proteolysis) | Resting insulin concentrations (insulin [7])
1 | CC(C)(O)CC(=O)O [HMB-FA, β-hydroxy-β-methylbutyric acid] | significantly elevated | significantly elevated | no difference between the groups | significantly higher GH response | significantly higher than PL | No differences were observed between the groups | greater IGF-1 response | No differences were observed between the groups | elevated at baseline | absorbed quicker | greater tissue clearance | more efficacious |  |  |  |  |  | 
2 | CC(C)(O)CC(=O)O [HMB, β-hydroxy-β-methylbutyrate] |  |  |  |  |  |  |  |  |  |  |  |  | unable to demonstrate any effect | no differences | 20-50% | no side effects | potent inhibitor of muscle proteolysis | significant increases
